# According to US11066681B2, “Production of itaconic acid” (LESAFFRE ET COMPAGNIE, priority 2016, dated 2021):
# “Also recorded” adds a separate entry of the source.
# How the values were obtained:
# [1] = test system: A. niger AB1.13 CAD 4.1 (CBS 141653) strain; test: Itaconic acid toxicity: shakeflask growth in M12+Cu with added IA, biomass dry weight; assay type: cell-based, Aspergillus niger
# Description: FIG. 4: Growth of AB1.13 CAD 4.1 (CBS 141653) strain in M12+Cu supplemented with several concentrations of itaconic acid. Medium devoid of C-source is used as negative control. An extracellular concentration of 10 g/l IA in the production medium results in an 75% decrease in biomass development.
# Shakeflasks (500 mL) were prepared with 100 mL M12+Cu supplemented with the following IA concentrations: 0, 10, 20, 40, 75 g/l and pH was adjusted to 2.3 by addition of KOH/H2SO4. The flasks were inoculated with 1 mL of overnight grown pre-culture. After 7 days the mycelium was harvested and the biomass was determined by measuring the dry weight. The effect of IA on the growth of A. niger was tested using the AB1.13 CAD 4.1 (CBS 141653) strain. As shown in FIG. 4 the growth of A. niger is already hampered at concentrations of 10 g/l IA in the extracellular medium.
# [2] = test system: trans-aconitate 2-methyltransferase (An16g06510); test: Gene expression analysis (RNA-Seq) in A. niger IA producing strains; assay type: cell-based, Aspergillus niger; conditions: IA producing A. niger strains in controlled fermentation
# Description: Similarly, genome wide gene expression analysis of Aspergillus niger strains expressing a functional itaconic acid pathway grown in fermenters was carried out to identify genes co-regulated by the expression of the itaconic acid gene cluster. The following strains were investigated: AB1.13 WT, AB1.13 CAD 4.1 (CBS141653), AB1.13 #49B (CBS141657), CitB #99 (CBS141659), and CitB #113.
# Controlled batch-cultivations were performed on 5 L scale benchtop New Brunswick Scientific fermenters (BioFlo 3000) at 33° C. Starting pH was 3.5 after inoculation and medium was allowed to naturally acidify till pH 2.3 and then kept at pH 2.3 by addition of 4M KOH. […]
# BaseClear in Leiden, NL performed digital gene expression profiling experiments based on RNA-Seq with an Illumina HiSeq 2000 System. Approximately 8-32 M unfiltered paired-end (PE) reads (99 bp/read on ˜320 bp cDNA inserts) were obtained. […] The reads were then further filtered, such that all quality phred scores after filtering are at least 22, with a read-length of at least 40 bases. […] After filtering the #PE-reads/samples were between 7.6M and 19.8M for all the samples respectively.
# Reads were aligned to the 20 contigs in a FastA file of the Aspergillus niger reference genome (from www.ebi.ac.uk). […] The reads were aligned to the reference genome using software based on a Burrows-Wheeler Transform (BWT) algorithm. […]
# [3] = test system: Itaconyl CoA transferase ATEG_06299; conditions: 40 g/l IA addition to culture medium; cited from earlier work
# [4] = test system: Itaconyl CoA hydratase ATEG_03709; conditions: 40 g/l IA addition to culture medium; cited from earlier work
# [5] = test system: Citramalyl-CoA lyase ATEG_03186; conditions: 40 g/l IA addition to culture medium; cited from earlier work
# [6] = test system: Trans-aconitate 3-methyltransferase (tmt-1) ATEG_06208; conditions: 40 g/l IA addition to culture medium; cited from earlier work
# [7] = test system: Trans-aconitate 2-methyltransferase ATEG_04223; conditions: 40 g/l IA addition to culture medium; cited from earlier work
smiles,measurement,setting,value
"C=C(CC(=O)O)C(=O)O [IA, itaconic acid]",growth of A. niger,"[1]; 10 g/l IA in the extracellular medium, M12+Cu, 7 days",hampered
same,growth at higher IA concentrations,"[1]; 20 g/l IA and higher (20, 40 and 75 g/l), M12+Cu, 7 days, 33° C.",detrimental effects of IA on growth become more evident; also recorded: further deteriorated growth
same,decrease in biomass development,"[1]; extracellular 10 g/l IA in production medium M12+Cu, pH 2.3, 7 days, 33° C.",75%
same,"gene expression, effect of itaconic acid",[2],induced
same,Induced,[3],induced
same,induced expression level (RKPM),[3],130 RKPM
same,x-fold,[3],8.2 x-fold
same,Induced,[4],induced
same,induced expression level (RKPM),[4],320 RKPM
same,x-fold,[4],2.3 x-fold
same,Induced,[5],induced
same,induced expression level (RKPM),[5],150 RKPM
same,x-fold,[5],5.4 x-fold
same,Induced,[6],not induced
same,induced expression level (RKPM),[6],<(4) RKPM
same,Induced,[7],not induced
same,induced expression level (RKPM),[7],<(25) RKPM
